US20100028839A1, “METHODS AND SYSTEMS FOR EVALUATING MEMORY AGENTS” (priority 2008, published 2010)
Several values for one entry are separate records, joined by “and”; a condition that tells them apart may be missing. Identical values can stand only once.

Assays:
aged male macaques [1] = experiment: Discrimination Learning - Long Term Retrieval task (DL LTR); assay type: in vivo; details: for RT 1-14 (retention test trials 1 to 14), mean / RT 15-28 (retention test trials 15 to 28), mean / retention test, mean / RT overall / RT trials 1-14 / RT trials 15-28: day 8 post-criterion; for RT overall / RT trials 1-14 / RT trials 15-28: raw data of individual animals; for C value / Days to C: raw data of individual animals (Old-1, -2, -5, -7, -8, -9)
Description: (§1) The study was conducted using 6 aged male macaques (age approximately 22 years at onset of the study which is equivalent to approximately 66 human years) previously trained to performed certain memory tasks. Assessments of memory performance used the CANTAB system (the Cambridge Neuropsychological Test Automated Battery) and a new task.
In this task, animals are presented with 2 pairs of stimuli (e.g. 1 pair of shapes and 1 pair of lines) over the course of a daily test session. For each pair of stimuli, one stimulus is arbitrarily designated as the positive stimulus (i.e., touch of that stimulus is rewarded). Each pair of stimuli is presented 14 times during a daily session that consists of 28 trials. The pairs of stimuli (shapes or lines) are presented in a pseudo randomized fashion during each session. Animals have to touch the “positive” shape or line in order to receive a sugar pellet reward accompanied by a pleasant tone. Touching the alternative shape or line results in a negative tone, no sugar pellet and a time out. Animals are tested daily until they reach a performance criterion of 85% correct responses during a daily session. When this criterion is reached, animals receive no further testing for the next 7 days. On day 8 post-criterion, animals are tested again using the same pairs of stimuli that they have seen previously learned in order to assess long term retrieval of the learned discriminations.
(§2) All drugs were administered orally in marshmallow while the animal was in a specially designed testing cage. Vehicle was marshmallow alone.
(§3) Treatments were administered sequentially starting with treatment 1. Each treatment (dose of HT-0712 or vehicle) was administered once per day for 4 days before behavioral training began and then continued at 1 treatment (dose of HT-0712 or vehicle) per day, delivered four hours before testing, for the duration of the training period. When each individual animal reached performance criterion of at least 85% correct responses during a daily session, training and dosing ceased for seven days. Then, on post-criterion day 8, animals were tested again on the DL LTR task (retention testing).
The percent correct responses on the total number of daily trials were recorded as well as the number of days needed to reach the criterion (at least 85% correct responses in a single test session). The percent correct responses on the retention trial was recorded for the entire retention trial session and sub-analyzed for performance differences on trials 1-14 versus trials 15-28.
Data from vehicle trials were compared to data from drug trials using a one way ANOVA. Post hoc comparisons were made using the Bonferroni t-test.

aged male macaques [2] = experiment: Observation of behavioral or physical side effects during the DL LTR study; assay type: in vivo; details: any dose given (1, 10, 100 mg/kg p.o. daily)
Description: as §1, §2, §3
Data from this non-responder were removed from the statistical analysis.

aged rats = details: treatment of aged rats; cited from earlier work
[3] = 1 mg/kg p.o. daily, excluding NHP old-9 (N=5), mean±s.e.m.
[4] = 1 mg/kg p.o. daily, including NHP old-9 (N=6)
[5] = 1 mg/kg p.o. daily, entire study group including NHP old-9 (N=6)
[6] = 1 mg/kg p.o. daily, excluding non-responder NHP old-9 (N=5), mean±s.e.m.
[7] = 10 mg/kg p.o. daily, excluding NHP old-9 (N=5), mean±s.e.m.
[8] = 10 mg/kg p.o. daily, including NHP old-9 (N=6)
[9] = 10 mg/kg p.o. daily, entire study group including NHP old-9 (N=6)
[10] = 10 mg/kg p.o. daily, excluding non-responder NHP old-9 (N=5), mean±s.e.m.
[11] = 100 mg/kg p.o. daily, excluding NHP old-9 (N=5), mean±s.e.m.
[12] = 100 mg/kg p.o. daily, including NHP old-9 (N=6)
[13] = 100 mg/kg p.o. daily, entire study group including NHP old-9 (N=6)
[14] = 100 mg/kg p.o. daily, excluding non-responder NHP old-9 (N=5), mean±s.e.m.

COc1ccc([C@H]2CNC(=O)[C@H](Cc3cccc(C)c3)C2)cc1OC1CCCC1 [HT-0712]
RT 1-14 (retention test trials 1 to 14), mean (aged male macaques [1]; [3]): 80.2±6.2 % correct responses and 80.200 % correct responses
RT 15-28 (retention test trials 15 to 28), mean (aged male macaques [1]; [3]): 91.6±3.4 % correct responses and 91.600 % correct responses
retention test, mean (aged male macaques [1]; [3]): 85.8±4.6 % correct responses and 85.800 % correct responses
RT 1-14 (retention test trials 1 to 14), mean (aged male macaques [1]; [4]): 77.500 % correct responses
RT 15-28 (retention test trials 15 to 28), mean (aged male macaques [1]; [4]): 88.167 % correct responses
retention test, mean (aged male macaques [1]; [4]): 82.833 % correct responses
RT overall (aged male macaques [1]; 1 mg/kg p.o. daily): 89.00 % correct responses and 68.00 % correct responses (2×) and 93.00 % correct responses (2×) and 86.00 % correct responses
RT trials 1-14 (aged male macaques [1]; 1 mg/kg p.o. daily): 86.00 % correct responses (2×) and 64.00 % correct responses and 93.00 % correct responses and 79.00 % correct responses and 57.00 % correct responses
RT trials 15-28 (aged male macaques [1]; 1 mg/kg p.o. daily): 93.00 % correct responses (3×) and 71.00 % correct responses and 100.00 % correct responses and 79.00 % correct responses
C value (criterion value reached), mean (aged male macaques [1]; [5]): 91.000 % correct responses
day to C (days to reach criterion), mean (aged male macaques [1]; [5]): 12.667 days
C value (criterion value reached), mean (aged male macaques [1]; [6]): 91.4±1.8 % correct responses and 91.400 % correct responses
day to C (days to reach criterion), mean (aged male macaques [1]; [6]): 12.0 ± 3.6 days and 12.000 days
C value (aged male macaques [1]; 1 mg/kg p.o. daily): 96.00 % correct responses and 89.00 % correct responses (2×) and 86.00 % correct responses and 93.00 % correct responses (2×)
Days to C (aged male macaques [1]; 1 mg/kg p.o. daily): 4 days and 17 days and 15 days and 3 days and 21 days and 16 days
RT 1-14 (retention test trials 1 to 14), mean (aged male macaques [1]; [7]): 71.4±3.4 % correct and 71.400 % correct
RT 15-28 (retention test trials 15 to 28), mean (aged male macaques [1]; [7]): 87.2±4.8 % correct and 87.200 % correct
retention test, mean (aged male macaques [1]; [7]): 79.2±3.5 % correct responses and 79.200 % correct responses
RT 1-14 (retention test trials 1 to 14), mean (aged male macaques [1]; [8]): 73.833 % correct responses
RT 15-28 (retention test trials 15 to 28), mean (aged male macaques [1]; [8]): 87.000 % correct responses
retention test, mean (aged male macaques [1]; [8]): 80.333 % correct responses
RT overall (aged male macaques [1]; 10 mg/kg p.o. daily): 89.00 % correct responses and 86.00 % correct responses (2×) and 75.00 % correct responses (2×) and 71.00 % correct responses
RT trials 1-14 (aged male macaques [1]; 10 mg/kg p.o. daily): 79.00 % correct responses (2×) and 86.00 % correct responses and 64.00 % correct responses (2×) and 71.00 % correct responses
RT trials 15-28 (aged male macaques [1]; 10 mg/kg p.o. daily): 100.00 % correct responses and 86.00 % correct responses (3×) and 71.00 % correct responses and 93.00 % correct responses
C value (criterion value reached), mean (aged male macaques [1]; [9]): 89.333 % correct responses
day to C (days to reach criterion), mean (aged male macaques [1]; [9]): 14.000 days
C value (criterion value reached), mean (aged male macaques [1]; [10]): 90.0±2.6 % correct responses and 90.000 % correct responses
day to C (days to reach criterion), mean (aged male macaques [1]; [10]): 11.8 ± 2.3 days and 11.800 days
C value (aged male macaques [1]; 10 mg/kg p.o. daily): 89.00 % correct responses (2×) and 86.00 % correct responses (3×) and 100.00 % correct responses
Days to C (aged male macaques [1]; 10 mg/kg p.o. daily): 18 days and 9 days and 5 days and 12 days and 15 days and 25 days
RT 1-14 (retention test trials 1 to 14), mean (aged male macaques [1]; [11]): 58.4±4.1 % correct and 58.400 % correct
RT 15-28 (retention test trials 15 to 28), mean (aged male macaques [1]; [11]): 71.4±6.1 % correct and 71.400 % correct
retention test, mean (aged male macaques [1]; [11]): 65.0±3.5 % correct responses and 65.000 % correct responses
RT 1-14 (retention test trials 1 to 14), mean (aged male macaques [1]; [12]): 59.333 % correct responses
RT 15-28 (retention test trials 15 to 28), mean (aged male macaques [1]; [12]): 72.667 % correct responses
retention test, mean (aged male macaques [1]; [12]): 66.000 % correct responses
RT overall (aged male macaques [1]; 100 mg/kg p.o. daily): 75.00 % correct responses and 71.00 % correct responses and 57.00 % correct responses (2×) and 68.00 % correct responses (2×)
RT trials 1-14 (aged male macaques [1]; 100 mg/kg p.o. daily): 64.00 % correct responses (2×) and 50.00 % correct responses (2×) and 57.00 % correct responses and 71.00 % correct responses
RT trials 15-28 (aged male macaques [1]; 100 mg/kg p.o. daily): 86.00 % correct responses (2×) and 79.00 % correct responses and 64.00 % correct responses (2×) and 57.00 % correct responses
C value (criterion value reached), mean (aged male macaques [1]; [13]): 86.333 % correct responses
day to C (days to reach criterion), mean (aged male macaques [1]; [13]): 10.333 days
C value (criterion value reached), mean (aged male macaques [1]; [14]): 86.4±0.7 % correct responses and 86.400 % correct responses
day to C (days to reach criterion), mean (aged male macaques [1]; [14]): 9.0 ± 2.8 days and 9.000 days
C value (aged male macaques [1]; 100 mg/kg p.o. daily): 85.00 % correct responses and 86.00 % correct responses (4×) and 89.00 % correct responses
Days to C (aged male macaques [1]; 100 mg/kg p.o. daily): 11 days and 3 days and 10 days and 18 days and 17 days
animals with improved memory performance (decrease in the number of days needed to reach criterion) (aged male macaques [1]; 1, 10, 100 mg/kg p.o., six aged macaques): Five of the six
days to criterion versus vehicle (aged male macaques [1]; each dose (1, 10, 100 mg/kg p.o.), Bonferroni t-test, p<0.050, old-9 excluded): significant decrease
learning ability and long term memory of normal aged non-human primates (aged male macaques [1]; summary of study): significantly improves
behavioral or physical side effects (aged male macaques [2]): no noticeable behavioral or physical side effects

COc1ccc(C2CNC(=O)C2)cc1OC1CCCC1 (centres unmarked) [rolipram]
age-dependent loss of hippocampal-dependent memory and cellular long-term potentiation (aged rats): ameliorates
